What was measured:
[1] = target: T1, Glucose-6-phosphatase enzyme (G6Pase) (Rattus norvegicus, UniProt P43428); assay: Glucose-6-phosphatase (G6Pase) enzyme activity inhibition assay; type: biochemical; conditions: rat liver microsome-enriched supernatant, 20 mM G6P
T1 construct: dilutions of the supernatant enriched with microsomes were prepared with buffer; from tissue; host or cells: rat liver, microsome-enriched fraction
T1 sequence (P43428 1-357): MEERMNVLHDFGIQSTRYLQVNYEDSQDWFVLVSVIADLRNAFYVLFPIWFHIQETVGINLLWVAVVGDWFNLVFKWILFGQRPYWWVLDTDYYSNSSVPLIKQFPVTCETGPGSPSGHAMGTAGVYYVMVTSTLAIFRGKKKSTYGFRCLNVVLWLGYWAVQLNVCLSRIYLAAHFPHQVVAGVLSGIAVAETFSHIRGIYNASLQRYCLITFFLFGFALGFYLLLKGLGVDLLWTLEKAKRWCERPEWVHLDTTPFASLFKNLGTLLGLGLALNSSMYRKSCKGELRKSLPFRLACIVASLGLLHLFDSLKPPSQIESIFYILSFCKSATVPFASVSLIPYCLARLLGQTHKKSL
Description: Livers were removed from 18-h fasted healthy rats (3), which were previously anesthetized with 5% isoflurane ([Unit for Laboratory Animal Medicine, 2023]). Then, they were homogenized in buffer (250 mM sucrose, 1 mM EDTA, 5 mM HEPES, pH 7.4), filtered, and subsequently subjected to differential centrifugation as described by [Andrade-Cetto and Cárdenas-Vázquez (2010)]. Both the microsome-enriched supernatant (containing the enzyme complex glucose-6-phosphatase) and the cytosolic supernatant (containing the enzyme fructose-1,6-bisphosphatase) were collected and stored at −40°C until use.
Colorimetric assays were carried out to detect the formation of a phosphomolybdate complex, which is proportional to the activity of the G6Pase enzyme complex. The reaction turns blue when G6Pase releases the inorganic phosphate and therefore the lower the color intensity, the greater the inhibition ([Arion, 1989]). […] Finally, the absorbance was measured at 830 nm.
Finally, for in vitro experiments, absorbance values were transformed into activity percentages following the next formula: Enzyme activity %=AS−ASB/AC−ACB×100
Where A S is the absorbance of the inhibitor sample at a specific concentration, A SB is the blank of the inhibitor sample, A C is the highest absorbance (without inhibitor), and A CB is the blank of the highest absorbance. […]

[2] = tested on: STZ-NA-hyperglycemic rats; assay: Evaluation of the hypoglycemic effect (acute glucose curves); type: in vivo, Wistar rats
Description: (§1) All procedures carried out on animals were approved by the Academic Ethics and Scientific Responsibility Commission (CEARC) of the School of Sciences, UNAM with protocol numbers PI_2021_08_23, PI_2022_21_05b, and PI_2022_22_07. Wistar rats of both sexes, 8 weeks old, were acquired and maintained under standard bioterium conditions (25°C, 55% humidity and 12:12 h light and dark photoperiod) with water and food ad libitum. Treatment administration (vehicle and samples) was performed orally with the help of an esophageal cannula. Blood samples were obtained from the tail vein and glucose measurements were performed in duplicate using Accu-Chek® Active glucometers.
In summary hyperglycemia was induced as described by [Masiello et al. (1998)], rats fasted for 12 h were administered intraperitoneally with 150 mg/kg b. w. of NA and, 15 min later, 65 mg/kg b. w. of STZ was injected intravenously. After 2 weeks, animals with blood glucose values above 180 mg/dL were selected to perform the tests described below.
Basal glucose levels were assessed before giving the treatments. Immediately after the administration of treatments, glucose levels were monitored every hour for 3 h ([Espinoza-Hernández et al., 2021]). Thirty rats fasted for 4 h were divided into five groups (n = 6 each group): 1. Normoglycemic Control (N), administered with physiological solution (vehicle); 2. Hyperglycemic Control (H), which received physiological solution; 3. Hyperglycemic Control + glibenclamide, which was administered with 5 mg/kg b. w. (Aurax®) (HGli) ([Berridge et al., 1992]); 4. Hyperglycemic Group + EtOH-WCg, which received 30 mg/kg b. w. (HCg); and 5. Hyperglycemic Group + junceic acid, administered with 5.6 mg/kg b. w. (HJa).

[3] = tested on: normoglycemic (healthy) rats; assay: Fasting glucose and insulin levels, normoglycemic rats; type: in vivo, Wistar rats; conditions: normoglycemic rats fasted 12 h, 2 h, glibenclamide 5 mg/kg
Description: as §1
(§2) Normoglycemic (healthy) and hyperglycemic rats were used after 12 h of fasting selecting those with blood glucose levels between 90 and 110 mg/dL and 180–220 mg/dL, respectively. Before the administration of the treatment and every 30 min for 2 h, glucose levels were determined and additional blood samples (approximately 300 µL) were obtained, which were immediately centrifuged at 10,000 g for 10 min. […] Insulin quantification was performed using the immunoassay Rat/Mouse Insulin ELISA kit EZRMI-13KEMD Millipore/Merck ([Espinoza-Hernández et al., 2021]). […]
(§3) Data are presented as mean ± standard error of the mean (SEM). […] Differences detected with p < 0.05 were considered statistically significant. […]

[4] = tested on: STZ-NA-hyperglycemic rats; assay: Fasting glucose and insulin levels, hyperglycemic rats; type: in vivo, Wistar rats; conditions: hyperglycemic rats fasted 12 h, 2 h; glibenclamide 5 mg/kg, EtOH-WCg 30 mg/kg, junceic acid 5.6 mg/kg b.w.
Description: as §1, with “glucometers. […]” for “glucometers.”
as §2, §3

[5] = tested on: normoglycemic (healthy) rats; assay: Insulin tolerance tests (insulin sensitivity assessment); type: in vivo, Wistar rats; conditions: healthy rats fasted 4 h
Description: as §1
First, basal glucose was determined and, immediately after, treatments were given. Forty-5 min later, glucose levels were measured and then isophane insulin (Aurax®; 0.5 U/kg b. w.) was administered intraperitoneally. Glucose levels were monitored at minutes 15, 30, 60, and 120 after insulin injection. In total, 24 rats were divided into four groups (n = 6 each group): 1. Control, which received physiological solution (C); 2. […]
Where Tx is the value of glucose or insulin at each time and T0 is the baseline value. Next, AUC were calculated and compared by applying t tests for intergroup comparisons and repeated measures ANOVA followed by Dunnett post hoc tests for intragroup comparisons. […]

[6] = tested on: normoglycemic (healthy) rats; assay: Postprandial glucose and insulin levels (glucose tolerance test), normoglycemic rats; type: in vivo, Wistar rats; conditions: glucose load 2 g/kg
Description: as §1, §2, §3

[7] = tested on: STZ-NA-hyperglycemic rats; assay: Postprandial glucose and insulin levels (glucose tolerance test), hyperglycemic rats; type: in vivo, Wistar rats; conditions: glucose load 2 g/kg
Description: as §1, with “glucometers. […]” for “glucometers.”
as §2, §3

How did the IC50 [1] turn out when `O=C(/C=C/c1ccc(O)c(O)c1)O[C@@H]1C[C@](O)(C(=O)O)C[C@@H](O)[C@H]1O` [Clorogenic acid, chlorogenic acid] was run?
The IC50 was 346 µM.

What about the Inhibition % [1] of the same compound?
The Inhibition % was 83%.

For `COc1ccc(Cl)cc1C(=O)NCCc1ccc(S(=O)(=O)NC(=O)NC2CCCCC2)cc1` [glibenclamide], which “hypoglycemic effect compared with the hyperglycemic control group (H)” value ([2]; 60 min after administration, maintained throughout the experiment, p < 0.05) is on record?
The value was “significant hypoglycemic effect”.

What about the “glucose decrease at the end of the study” value ([2]; STZ-NA-hyperglycemic rats fasted 4 h, oral, 3 h curve, glibenclamide 5 mg/kg, EtOH-WCg 30 mg/kg, junceic acid 5.6 mg/kg b.w.) of the same compound?
Its value is 57%.

And the “decrease of total blood glucose (AUC) compared with control (H)” value ([2]; STZ-NA-hyperglycemic rats fasted 4 h, oral, glibenclamide 5 mg/kg, EtOH-WCg 30 mg/kg, junceic acid 5.6 mg/kg b.w.)?
The value was 65%.

What about the “effect on plasma insulin in fasting” value ([3]; EtOH-WCg 30 mg/kg b.w.) of the same compound?
The value was “increase in plasma insulin”.

What about the “effect on blood glucose in fasting” value ([3]; EtOH-WCg 30 mg/kg, junceic acid 5.6 mg/kg b.w.) of the same compound?
Its value is “significant hypoglycemic effect”.

And the “effect on blood glucose in fasting” value [4]?
Its value is “significant hypoglycemic effect”.

What about the “effect on plasma insulin in fasting” value [4] of the same compound?
The value was “increase in plasma insulin”.

Which results are given for `CCc1ccc(CCOc2ccc(CC3SC(=O)NC3=O)cc2)nc1` (stereo not drawn) [pioglitazone]?
inverse AUC and KITT analyzes compared with control (C) ([5]; insulin tolerance test, 120 min): eliminated more glucose throughout the experiment at a higher removal rate than C; potentiation of the glucose-lowering effect of insulin compared with control (C) ([5]; isophane insulin 0.5 U/kg i.p. 45 min after treatment, pioglitazone 20 mg/kg, EtOH-WCg 30 mg/kg, junceic acid 5.6 mg/kg b.w.): exacerbated the glucose-lowering effect of insulin

`CCOc1cc(CC(=O)N[C@@H](CC(C)C)c2ccccc2N2CCCCC2)ccc1C(=O)O` [repaglinide] was tested. Which “increase of insulin levels” value ([6]; healthy rats, at 30 min, repaglinide 1 mg/kg b.w.) did it give?
Its value is “more than 500%”.

And the “effect on the hyperglycemic peak after the glucose load” value ([6]; normoglycemic rats, repaglinide 1 mg/kg, EtOH-WCg 30 mg/kg, junceic acid 5.6 mg/kg b.w.)?
Its value is “significantly decreased the hyperglycemic peak”.

What about the “increase of insulin levels” value ([7]; at 30 min, repaglinide 1 mg/kg b.w.) of the same compound?
The value was “under 25%”.

What about the “effect on postprandial hyperglycemia after the glucose load” value ([7]; repaglinide 1 mg/kg, EtOH-WCg 30 mg/kg, junceic acid 5.6 mg/kg b.w.) of the same compound?
The value was “significantly decreased the hyperglycemic peak”.
